Experimental data from US20090311237A1, “Combination therapy using a soluble hyaluronidase and a bisphosphonate” (priority 2008, published 2009).
Like-named read-outs stand apart in the source and are kept apart here.

Assay: Phase 1 Stage 1 clinical pharmacokinetics of SC ZA co-administered with rHuPH20
Format: in vivo, human
Details: human, serum, sc; for MRT: read-out: MRT; for Tmax: read-out: Tmax; for AUC(0-inf): read-out: AUC (0-∞); for AUC(0-t): ZA […] SC
Protocol: A pharmacokinetic study of zoledronic acid (ZA) co-administered with rHuPH20 in human subjects was conducted. The primary objective of the study was to determine the bioavailability of zoledronic acid dosed via subcutaneous (SC) co-administration with human recombinant hyaluronidase PH20 (rHuPH20). […] The patients were administered the prescribed dosage formulations as follows: Cohorts 1-5 were administered a single subcutaneous infusion in a dosage volume of 100 ml at a rate of 3 mL/min. […] The dosing solution is administered via needle or catheter into the SC space of the left anterior thigh (midway between the anterior iliac crest and the cephalad border of the patella). For cohorts 1-5, the dosing solutions were administered by a controlled rate infusion pump at approximately 3 mL/minute. […] The dosing solutions were administered by syringe push bolus injection. […] Serum concentration of ZA was determined using a qualified LC-MS-MS assay after derivatization with diazomethane (Zhu, L S et al. (2006) Rapid Commun. […] The assay range was from 2.0 to 400 ng/mL with a lower limit of quantitation (LLOQ) at 2.0 ng/mL. […] Non-compartmental analysis was used for derivation of primary and secondary pharmacokinetic (PK) parameters. […] Summary statistics (mean, standard deviation, and median) were calculated using JMP or Microsoft Excel.

[1] = ZA 1 mg SC + 24000 U rHuPH20, individual subjects
[2] = ZA 1 mg SC + 24000 U rHuPH20, mean, n=3
[3] = ZA 1 mg SC + 24000 U rHuPH20, median, n=3
[4] = ZA 2 mg SC + 24000 U rHuPH20, individual subjects
[5] = ZA 2 mg SC + 24000 U rHuPH20, mean, n=3
[6] = ZA 2 mg SC + 24000 U rHuPH20, median, n=3
[7] = ZA 5 mg SC + 24000 U rHuPH20, individual subjects
[8] = ZA 5 mg SC + 24000 U rHuPH20, mean, n=3
[9] = ZA 5 mg SC + 24000 U rHuPH20, median, n=3

O=P(O)(O)C(O)(Cn1ccnc1)P(=O)(O)O [ZA, 1-hydroxy-2-(1H-imidazol-1-yl)ethylidene-1,1-bisphosphonic acid]
MRT [1]: 6.93 h
Tmax [1]: 1.31 h
Vd/F (ZA 1 mg SC + 24000 U rHuPH20, individual subjects, read-out: Vss/F): 0.988 L/kg
Vd/F (ZA 1 mg SC + 24000 U rHuPH20, individual subjects, read-out: Vz/F): 2.65 L/kg
CL/F [2]: 2.15 mL/min/kg
Cmax [2]: 29.5 ng/mL
AUC(0-inf) [2]: 134 ng·h/mL
MRT [2]: 6.61 h
Tmax [2]: 1.03 h
Vd/F (ZA 1 mg SC + 24000 U rHuPH20, mean, n=3, read-out: Vss/F): 0.852 L/kg
Vd/F (ZA 1 mg SC + 24000 U rHuPH20, mean, n=3, read-out: Vz/F): 2.13 L/kg
CL/F [3]: 2.38 mL/min/kg
Cmax [3]: 30.1 ng/mL
AUC(0-inf) [3]: 122 ng·h/mL
MRT [3]: 6.66 h
Tmax [3]: 1.06 h
Vd/F (ZA 1 mg SC + 24000 U rHuPH20, median, n=3, read-out: Vss/F): 0.988 L/kg
Vd/F (ZA 1 mg SC + 24000 U rHuPH20, median, n=3, read-out: Vz/F): 2.05 L/kg
CL/F [4]: 2.25 mL/min/kg
Cmax [4]: 62.8 ng/mL
AUC(0-inf) [4]: 246 ng·h/mL
MRT [4]: 5.72 h
Tmax [4]: 1.31 h
Vd/F (ZA 2 mg SC + 24000 U rHuPH20, individual subjects, read-out: Vss/F): 0.774 L/kg
Vd/F (ZA 2 mg SC + 24000 U rHuPH20, individual subjects, read-out: Vz/F): 2.48 L/kg
CL/F [5]: 2.11 mL/min/kg
Cmax [5]: 58.2 ng/mL
AUC(0-inf) [5]: 262 ng·h/mL
MRT [5]: 7.5 h
Tmax [5]: 1.48 h
Vd/F (ZA 2 mg SC + 24000 U rHuPH20, mean, n=3, read-out: Vss/F): 0.941 L/kg
Vd/F (ZA 2 mg SC + 24000 U rHuPH20, mean, n=3, read-out: Vz/F): 2.87 L/kg
CL/F [6]: 2.06 mL/min/kg
Cmax [6]: 58.7 ng/mL
AUC(0-inf) [6]: 246 ng·h/mL
MRT [6]: 6.19 h
Tmax [6]: 1.56 h
Vd/F (ZA 2 mg SC + 24000 U rHuPH20, median, n=3, read-out: Vss/F): 0.774 L/kg
Vd/F (ZA 2 mg SC + 24000 U rHuPH20, median, n=3, read-out: Vz/F): 2.48 L/kg
CL/F [7]: 2.11 mL/min/kg
Cmax [7]: 131 ng/mL
AUC(0-inf) [7]: 620 ng·h/mL
MRT [7]: 10.9 h
Tmax [7]: 0.81 h
Vd/F (ZA 5 mg SC + 24000 U rHuPH20, individual subjects, read-out: Vss/F): 1.39 L/kg
Vd/F (ZA 5 mg SC + 24000 U rHuPH20, individual subjects, read-out: Vz/F): 4.27 L/kg
CL/F [8]: 1.85 mL/min/kg
Cmax [8]: 132 ng/mL
AUC(0-inf) [8]: 662 ng·h/mL
MRT [8]: 12.5 h
Tmax [8]: 0.98 h
Vd/F (ZA 5 mg SC + 24000 U rHuPH20, mean, n=3, read-out: Vss/F): 1.38 L/kg
Vd/F (ZA 5 mg SC + 24000 U rHuPH20, mean, n=3, read-out: Vz/F): 3.92 L/kg
CL/F [9]: 1.85 mL/min/kg
Cmax [9]: 131 ng/mL
AUC(0-inf) [9]: 637 ng·h/mL
MRT [9]: 12.7 h
Tmax [9]: 0.81 h
Vd/F (ZA 5 mg SC + 24000 U rHuPH20, median, n=3, read-out: Vss/F): 1.39 L/kg
Vd/F (ZA 5 mg SC + 24000 U rHuPH20, median, n=3, read-out: Vz/F): 3.91 L/kg
AUC(0-t) (AUC (0-12 h), Subj 1, inf 0.554 hr, PH20 23928 U): 29.2 ng·h/mL
AUC(0-t) (AUC (0-12 h), Subj 8, inf 0.531 hr, PH20 22944 U): 28.8 ng·h/mL
AUC(0-t) (AUC (0-12 h), Subj 11, inf 0.554 hr, PH20 23928 U): 29.4 ng·h/mL
AUC(0-t) (AUC (0-12 h), Subj 16, inf 0.553 hr, PH20 23904 U): 60.8 ng·h/mL
AUC(0-t) (AUC (0-12 h), Subj 18, inf […], PH20 23304 U): 66.2 ng·h/mL
AUC(0-t) (AUC (0-12 h), Subj 21, inf 0.556 hr, PH20 24000 U): 62.4 ng·h/mL
AUC(0-t) (AUC (0-12 h), Subj 25, inf 0.549 hr, PH20 23736 U): 103 ng·h/mL
AUC(0-t) (AUC (0-12 h), Subj 26, inf […], PH20 23088 U): 137 ng·h/mL
AUC(0-t) (AUC (0-12 h), Subj 31, inf 0.554 hr, PH20 23952 U): 213 ng·h/mL
AUC(0-t) (AUC (0-12 h), Subj 32, inf 0.556 hr, PH20 24000 U): 238 ng·h/mL
AUC(0-t) (AUC (0-12 h), Subj 51, inf 0.251 hr, PH20 6024 U): 384 ng·h/mL
AUC(0-t) (AUC (0-12 h), Subj 77, inf […], PH20 6000 U): 516 ng·h/mL
AUC(0-t) (AUC (0-24 h), Subj 1, inf 0.554 hr, PH20 23928 U): 29.4 ng·h/mL
AUC(0-t) (AUC (0-24 h), Subj 8, inf 0.531 hr, PH20 22944 U): 29.4 ng·h/mL
AUC(0-t) (AUC (0-24 h), Subj 11, inf 0.554 hr, PH20 23928 U): 29.9 ng·h/mL
AUC(0-t) (AUC (0-24 h), Subj 16, inf 0.553 hr, PH20 23904 U): 62.9 ng·h/mL
AUC(0-t) (AUC (0-24 h), Subj 18, inf […], PH20 23304 U): 68.5 ng·h/mL
AUC(0-t) (AUC (0-24 h), Subj 21, inf 0.556 hr, PH20 24000 U): 64.7 ng·h/mL
AUC(0-t) (AUC (0-24 h), Subj 25, inf 0.549 hr, PH20 23736 U): 112 ng·h/mL
AUC(0-t) (AUC (0-24 h), Subj 26, inf […], PH20 23088 U): 147 ng·h/mL
AUC(0-t) (AUC (0-24 h), Subj 31, inf 0.554 hr, PH20 23952 U): 228 ng·h/mL
AUC(0-t) (AUC (0-24 h), Subj 32, inf 0.556 hr, PH20 24000 U): 257 ng·h/mL
AUC(0-t) (AUC (0-24 h), Subj 51, inf 0.251 hr, PH20 6024 U): 430 ng·h/mL
AUC(0-t) (AUC (0-24 h), Subj 77, inf […], PH20 6000 U): 566 ng·h/mL
AUC(0-t) (AUC (0-48 h), Subj 1, inf 0.554 hr, PH20 23928 U): 29.4 ng·h/mL
AUC(0-t) (AUC (0-48 h), Subj 8, inf 0.531 hr, PH20 22944 U): 29.4 ng·h/mL
AUC(0-t) (AUC (0-48 h), Subj 11, inf 0.554 hr, PH20 23928 U): 29.9 ng·h/mL
AUC(0-t) (AUC (0-48 h), Subj 16, inf 0.553 hr, PH20 23904 U): 64.2 ng·h/mL
